Tests used:
alpha-glucosidase = test: Kinetics of alpha-glucosidase inhibition; format: biochemical, Saccharomyces cerevisiae; conditions: for mode of alpha-glucosidase inhibition: decreases in Vmax without changes in Km; for Vmax: substrate PNPG 0.25-2.0 mM
[1] = test system: advanced glycation end products (AGEs) formation (glycated BSA); test: In vitro advanced glycation end products; format: biochemical; conditions: read-out: IC50 ± S.D. advanced glycation end product inhibitory activity, 37 °C, seven days in the dark, mean ± SD, n = 3, NA = no inhibitory activity
[2] = target: alpha-amylase from Aspergillus oryzae (Aspergillus oryzae, UniProt P0C1B3); test: In vitro alpha-amylase inhibition assay; format: biochemical
[3] = target: alpha-glucosidase enzyme from Saccharomyces cerevisiae recombinant; test: In vitro alpha-glucosidase inhibition assay; format: biochemical; conditions: for IC50: read-out: IC50 ± S.D. alpha-glucosidase, mean ± SD, n = 3

In the case of `C[C@H]1O[C@H](O[C@H]2[C@H](O)[C@@H](O)[C@@H](O[C@H]3[C@H](O)[C@@H](O)C(O)O[C@@H]3CO)O[C@@H]2CO)[C@H](O)[C@@H](O)[C@@H]1N[C@H]1C=C(CO)[C@@H](O)[C@H](O)[C@H]1O` (stereo partly drawn) [Acarbose, acarbose, reference compound], the “mode of alpha-glucosidase inhibition” value (alpha-glucosidase) is reported as “non-competitive”, the Km (alpha-glucosidase; inhibitor 200 μM) is reported as 4.98 mM and the Vmax (alpha-glucosidase; inhibitor 200 μM) is reported as 0.045 △OD/min. For the same molecule, the Km (alpha-glucosidase; inhibitor 400 μM) was 4.96 mM and the Vmax (alpha-glucosidase; inhibitor 400 μM) was 0.030 △OD/min.
In the case of `N=C(N)NN` [Aminoguanidine, aminoguanidine, reference compound], the IC50 [1] is reported as 327 ± 5.95 µM.
With `COc1cc(CCc2cc(OC)c(O)c(OC)c2)ccc1O` [Compound 2, moscatilin] the IC50 [2] was 257 ± 9.87 µM, the IC50 [1] was 168 ± 9.42 µM and the IC50 [3] was 173 ± 5.84 µM.
Molecule `COc1cc2c(c(O)c1OC)-c1ccc(O)cc1CC2` [Compound 3, ephemeranthol A] has an IC50 [2] of 280 ± 9.76 µM and an IC50 [3] of 62.5 ± 2.85 µM.
Work on `COc1cc(O)cc(CCc2ccc(O)c(OC)c2)c1` [Compound 4, gigantol] yielded an IC50 [2] of 332 ± 4.23 µM and an IC50 [3] of 231 ± 11.3 µM.
In the case of `COc1cc(O)cc2ccc3cccc(O)c3c12` [Compound 5, moscatin], the “IC50 ± S.D. alpha-amylase” value ([2]; mean ± SD, n = 3, NA = no inhibitory activity) is reported as “did not inhibit alpha-amylase activity”, the “fold greater alpha-glucosidase inhibitory potency than acarbose (Ki)” value (alpha-glucosidase; Ki relative to acarbose) is reported as “approximately 9 fold” and the “mode of alpha-glucosidase inhibition” value (alpha-glucosidase) is reported as “non-competitive”. The Km (alpha-glucosidase; inhibitor 30 μM) was 1.62 mM, the Vmax (alpha-glucosidase; inhibitor 30 μM) was 0.017 △OD/min and the Km (alpha-glucosidase; inhibitor 60 μM) was 1.66 mM. The Vmax (alpha-glucosidase; inhibitor 60 μM) was 0.011 △OD/min, the “fold lower alpha-glucosidase IC50 than acarbose” value ([3]; IC50 relative to acarbose) was “approximately 10 fold” and the IC50 [3] was 32.5 ± 1.04 µM.
Work on `COc1cc(O)c2c(c1)CCc1cc(O)ccc1-2` [Compound 6, lusianthridin] yielded an IC50 [2] of 372.2 ± 2.74 µM and an IC50 [3] of 63.89 ± 0.27 µM.
`Oc1ccc2c(c1)CCc1cc(O)cc(O)c1-2` [Compound 7, 2,4,7-trihydroxy-9,10-dihydrophenanthrene] showed an IC50 [2] of 617 ± 11 µM, an IC50 [1] of 411 ± 15 µM and an IC50 [3] of 422 ± 7 µM.
